Like-named read-outs stand apart in the source and are kept apart here.
System: HTT mRNA
Assay: RT-qPCR splicing assay, HTT canonical junction (CJ) and alternative junction (AJ) mRNA
Type: cell-based, human
Conditions: Homo sapiens; for AC50: increase in HTT alternative junction (AJ) mRNA, read-out: HTT AJ AC50
Procedure, shortened: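 A673 cells (normalized to PPIA) or K562 cells (normalized to GAPDH or GUSB) were treated 24 h at 37 °C with an 11-point 3-fold dilution series, top 10 uM, DMSO ≤0.25%. Cell lysates went to one-step RT-qPCR measuring canonical- and alternative-junction MYB or HTT transcripts.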

[1] = decrease in HTT canonical junction (CJ) mRNA, RT-qPCR, read-out: HTT CJ IC50
[2] = Table 5 panel, canonical junction qPCR, compound concentration having 50% response in CJ decrease, read-out: HTT IC50 (decrease in CJ mRNA levels)
[3] = canonical junction qPCR panel, Table 5, read-out: HTT (decrease in CJ mRNA levels, IC50)

SMILES	IC50 [1]	AC50 (RT-qPCR)	IC50 [2]	IC50 [3]
Cc1cn2cc(-c3ncc4c(=O)n([C@H]5CCNC5)ccc4n3)cc(F)c2n1 [Compound 1220]	100 to 1000 nM	100 to 1000 nM	100 to 1000 nM	–
Cc1cn2cc(-c3ccc4c(=O)n(C5CCNC5)ccc4n3)c(O)c(C)c2n1 (stereo not drawn) [Compound 1302]	> 10000 nM	> 10000 nM	–	> 10000 nM
Cc1c(O)c(-c2ncc3c(=O)n([C@@H]4C[C@H]5C[C@@H]4CN5)ccc3n2)cc2cn(C)nc12 [Compound 1445, 6-[(1R,4R,5R)-2-azabicyclo[2.2.1]heptan-5-yl]-2(6-hydroxy-2,7-dimethyl-indazol-5-yl)pyrido[4,3-d]pyrimidin-5-one]	> 10000 nM	> 10000 nM	–	> 10000 nM
Cc1cc(-c2cc3ccn(C4CCN(C)CC4)c(=O)c3cn2)cc2cn(C)nc12 [Compound 1206, 6-(2,7-dimethyl-2H-indazol-5-yl)-2-(1-methylpiperidin-4-yl)-2,7-naphthyridin-1(2H)-one]	> 10000 nM	> 10000 nM	> 10000 nM	–
Cc1c(O)c(-c2ncc3c(=O)n(C4CCNC4)ccc3n2)cc2cn(C)nc12 (stereo not drawn) [Compound 1222]	> 10000 nM	1000 to 10000 nM	1000 to 10000 nM	–
Cc1cn2cc(-c3ncc4c(=O)n(C5CCNC5)ccc4n3)cc(C#N)c2n1 (stereo not drawn) [Compound 1221]	100 to 1000 nM	100 to 1000 nM	100 to 1000 nM	–
Cn1cc2cc(-c3ccc4c(=O)n(C5CCNCC5)ccc4n3)cc(F)c2n1 [Compound 1231]	100 to 1000 nM	100 to 1000 nM	–	100 to 1000 nM
Cn1cc2cc(-c3cc4ccn(C5CCNCC5)c(=O)c4cn3)c(O)c(F)c2n1 [Compound 1199]	1000 to 10000 nM	1000 to 10000 nM	1000 to 10000 nM	–
Cc1cn2nc(-c3ccc4c(=O)n(C5CCNCC5)ncc4c3)cc(C)c2n1 [Compound 186]	< 100 nM	< 100 nM	< 100 nM	–
Cc1cn2cc(-c3cc4ccn(C5CCNC5)c(=O)c4cn3)cc(C#N)c2n1 (stereo not drawn) [Compound 1214]	> 10000 nM	> 10000 nM	> 10000 nM	–
Cc1cn2nc(-c3ccc4c(=O)n([C@@H]5CCNC5)ccc4n3)cc(C)c2n1 [Compound 1438, 2-(2,8-dimethylimidazo[1,2-b]pyridazin-6-yl)-6-[(3R)-pyrrolidin-3-yl]-1,6-naphthyridin-5-one]	1000 to 10000 nM	1000 to 10000 nM	–	1000 to 10000 nM
Cc1c(O)c(-c2ncc3c(=O)n(C4CCNC4)ccc3n2)cc2cn(C)nc12 (stereo in doubt) [Compound 1440, (6S)-2-(6-hydroxy-2,7-dimethyl-indazol-5-yl)-6-pyrrolidin-3-yl-pyrido[4,3-d]pyrimidin-5-one]	> 10000 nM	> 10000 nM	–	> 10000 nM
Cc1cn2cc(-c3cc(O)c4c(=O)n(C5CCNCC5)ccc4n3)cc(F)c2n1 [Compound 1448]	1000 to 10000 nM	100 to 1000 nM	–	100 to 1000 nM
Cn1cc2cc(-c3ncc4c(=O)n(C5CCNC5)ccc4n3)c(O)c(F)c2n1 (stereo not drawn) [Compound 1223]	1000 to 10000 nM	1000 to 10000 nM	1000 to 10000 nM	–
Cc1c(O)c(-c2ncc3c(=O)n([C@@H]4C[C@H]5C[C@@H]4CN5)ccc3n2)cc2cn(C)nc12 (stereo in doubt) [Compound 1446, 6-[(1R,4R,5R)-2-azabicyclo[2.2.1]heptan-5-yl]-2-(6-hydroxy-2,7-dimethyl-indazol-5-yl)pyrido[4,3-d]pyrimidin-5-one]	> 10000 nM	> 10000 nM	–	> 10000 nM
Cc1c(O)c(-c2ccc3c(=O)n(C4CC(C)NC(C)C4)ccc3n2)cc2cn(C)nc12 (stereo not drawn) [Compound 1447, 6-(2,6-dimethyl-4-piperidyl)-2-(6-hydroxy-2,7-dimethyl-indazol-5-yl)-1,6-naphthyridin-5-one]	100 to 1000 nM	100 to 1000 nM	–	100 to 1000 nM
Cc1cn2cc(-c3ccc4c(=O)n(C5CCNCC5)ccc4n3)nc(C)c2n1 [Compound 1238, 2-(2,8-dimethylimidazo[1,2-a]pyrazin-6-yl)-6-(piperidin-4-yl)-1,6-naphthyridin-5(6H)-one]	> 10000 nM	> 10000 nM	–	> 10000 nM
Cc1cn2cc(-c3cc4ccn(C5CCNCC5)c(=O)c4cn3)cc(F)c2n1 [Compound 1196]	100 to 1000 nM	100 to 1000 nM	100 to 1000 nM	–
Cc1cn(C2CCNCC2)c(=O)c2ccc(-c3cc4cn(C)nc4c(F)c3O)nc12 [Compound 1285]	< 100 nM	< 100 nM	–	< 100 nM

SMILES	IC50 [1]	AC50 (RT-qPCR)	IC50 [2]	IC50 [3]
Cc1cn2nc(-c3ccc4c(=O)n([C@H]5CCNC5)ccc4n3)cc(C)c2n1 [Compound 1437, 2-(2,8-dimethylimidazo[1,2-b]pyridazin-6-yl)-6-[(3S)-pyrrolidin-3-yl]-1,6-aphthyridin-5-one]	1000 to 10000 nM	1000 to 10000 nM	–	1000 to 10000 nM
Cn1cc2cc(-c3ncc4c(=O)n(C5CCNCC5)ccc4n3)cc(F)c2n1 [Compound 1212, 2-(7-fluoro-2-methyl-2H-indazol-5-yl)-6-(piperidin-4-yl)pyrido[4,3-d]pyrimidin-5(6H)-one]	100 to 1000 nM	100 to 1000 nM	100 to 1000 nM	–
Cn1cc2cc(-c3ccc4c(=O)n(C5CCNCC5)cnc4c3)ccc2n1 [Compound 182]	1000 to 10000 nM	1000 to 10000 nM	1000 to 10000 nM	–
COc1c(-c2cc3ccn(C4CCNCC4)c(=O)c3cn2)cc2cn(C)nc2c1F [Compound 1219]	1000 to 10000 nM	1000 to 10000 nM	1000 to 10000 nM	–
Cc1cn2cc(-c3ncc4c(=O)n([C@@H]5CCNC6(CC6)C5)ccc4n3)cc(F)c2n1 [Compound 1457, 6-[(7R)-4-azaspiro[2.5]octan-7-yl]-2-(8-fluoro-2-methyl-imidazo[1,2-a]pyridin-6-yl)pyrido[4,3-d]pyrimidin-5-one]	1000 to 10000 nM	100 to 1000 nM	–	100 to 1000 nM
Cn1cc2nc(-c3ccc4c(=O)n(C5CCNCC5)ccc4n3)c(O)cc2n1 [Compound 1296]	100 to 1000 nM	< 100 nM	–	< 100 nM
Cc1c(O)c(-c2ncc3c(=O)n([C@@H]4CC5CC4CN5)ccc3n2)cc2cn(C)nc12 (stereo in doubt) [Compound 1443, 6-[(1R,4R,5R)-2-azabicyclo[2.2.1]heptan-5-yl]-2-(6-hydroxy-2,7-dimethyl-indazol-5-yl)pyrido[4,3-d]pyrimidin-5-one]	1000 to 10000 nM	1000 to 10000 nM	–	1000 to 10000 nM
Cn1cc2cc(-c3ccc4c(=O)n([C@@H]5CCNC5)ccc4n3)c(O)c(F)c2n1 [Compound 1452, 2-(7-fluoro-6-hydroxy-2-methyl-indazol-5-yl)-6-[(3R)-pyrrolidin-3-yl]-1,6-naphthyridin-5-one]	100 to 1000 nM	100 to 1000 nM	–	100 to 1000 nM
Cc1cn2cc(-c3ccc4c(=O)n(C5CCNC5)ccc4n3)cc(F)c2n1 (stereo not drawn) [Compound 1299]	> 10000 nM	> 10000 nM	–	> 10000 nM
Cc1c(O)c(-c2ncc3c(=O)n([C@H]4CCNC(C)(C)C4)ccc3n2)cc2cn(C)nc12 [Compound 1436]	1000 to 10000 nM	1000 to 10000 nM	–	1000 to 10000 nM
Cc1cn2cc(-c3ncc4c(=O)n(C5CCNCC5)ccc4n3)c(O)c(C)c2n1 [Compound 1225]	100 to 1000 nM	100 to 1000 nM	100 to 1000 nM	–
Cc1c(O)c(-c2ncc3c(=O)n(C4C[C@@H](C)N[C@H](C)C4)ccc3n2)cc2cn(C)nc12 (stereo partly drawn) [Compound 1454, 6-[(2R,6R)-2,6-dimethyl-4-piperidyl]-2-(6-hydroxy-2,7-dimethyl-indazol-5-yl)pyrido[4,3-d]pyrimidin-5-one]	1000 to 10000 nM	100 to 1000 nM	–	100 to 1000 nM
Cc1cn2cc(-c3ccc4c(=O)n(C5CCNCC5)ccc4n3)cc(C)c2n1 [Compound 1241, 2-(2,8-dimethylimidazo[1,2-a]pyridin-6-yl)-6-(piperidin-4-yl)-1,6-naphthyridin-5(6H)-one]	100 to 1000 nM	100 to 1000 nM	–	100 to 1000 nM
Cc1cn2cc(-c3cc(F)c4c(=O)n([C@@H]5CNC[C@H]5F)ccc4c3)cc(F)c2n1 [Compound 1456]	> 10000 nM	> 10000 nM	–	> 10000 nM
Cn1cc2cc(-c3ccc4c(=O)n([C@H]5CCNC5)ccc4n3)c(O)c(F)c2n1 [Compound 1451, 2-(7-fluoro-6-hydroxy-2-methyl-indazol-5-yl)-6-[(3S)-pyrrolidin-3-yl]-1,6-naphthyridin-5-one]	100 to 1000 nM	100 to 1000 nM	–	100 to 1000 nM
Cc1c(O)c(-c2ncc3c(=O)n(C4C[C@H](C)N[C@@H](C)C4)ccc3n2)cc2cn(C)nc12 (stereo partly drawn) [Compound 1455, 6-[(2S,6S)-2,6-dimethyl-4-piperidyl]-2-(6-hydroxy-2,7-dimethyl-indazol-5-yl)pyrido[4,3-d]pyrimidin-5-one]	100 to 1000 nM	100 to 1000 nM	–	100 to 1000 nM
Cc1c(O)c(-c2ncc3c(=O)n(C4CCC(N)CC4)ccc3n2)cc2cn(C)nc12 (stereo not drawn) [Compound 1300, 6-((1s,4s)-4-aminocyclohexyl)-2-(6-hydroxy-2,7-dimethyl-2H-indazol-5-yl)pyrido[4,3-d]pyrimidin-5(6H)-one]	1000 to 10000 nM	100 to 1000 nM	–	100 to 1000 nM
Cc1c(O)c(-c2ncc3c(=O)n([C@@H]4C[C@H]5CC[C@@H](C4)N5)ccc3n2)cc2cn(C)nc12 [Compound 1429, 6-[(1S,5R)-8-azabicyclo[3.2.1]octan-3-yl]-2-(6-hydroxy-2,7-dimethyl-indazol-5-yl)pyrido[4,3-d]pyrimidin-5-one]	100 to 1000 nM	100 to 1000 nM	–	100 to 1000 nM
Cn1cc2cc(-c3ccc4c(=O)n(C5CCNC6(CC6)C5)ccc4n3)c(O)cc2n1 (stereo not drawn) [Compound 1242]	< 100 nM	< 100 nM	–	< 100 nM
